Results published in paper PMC6752957, “Beta-defensins and analogs in Helicobacter pylori infections: mRNA expression levels, DNA methylation, and antibacterial activity” (PLoS ONE, 2019).
No end group written: not given here.

Key:
[1] = test system: H. pylori (ATCC49503 (tox+ strain 60190)); experiment: CFU assay of antimicrobial activity against H. pylori, with salt dependence; format: cell-based, Helicobacter pylori
Method: CFU assays of the antimicrobial activities of HBDs against H. pylori (ATCC49503 (tox+ strain 60190); American Type Culture Collection, ATCC) were performed. The toxin-producing H. pylori strain was revived from frozen stocks by seeding on a blood agar plate (7% horse blood) at 37°C for 3 days in microaerophilic conditions (O2:10% and […]) generated with Anaeropack Campylo (Mitsubishi Gas Chemicals Corp.). Bacteria harvested from the plates were suspended in 200 ml of brain heart infusion broth (10% fetal calf serum) and grown in liquid culture at 37°C for three days while shaking in a monitored microaerophilic atmosphere.
H. pylori was incubated with HBDs for two hours at 37°C. Two concentrations of peptides (2.5 μM and 12.5 μM) were used. For the salt dependence assay, 0, 50, 100, and 200 mM concentrations of NaCl were added in the incubation buffer as previously described. Each assay was done in triplicate.
Antimicrobial activity of HBD2-4 and the analogs 3N and 3NI was evaluated on H. pylori, cultured on HP agar for 4 d after a […] pre-incubation with or without chemically synthesized HBD-2-4 and 3N and 3NI analogs. The two peptide sequences are derived from HBD1 and HBD3. 3N analog is the HBD3 sequence without the N-terminal domain that HBD1 lacks.
We evaluated two concentrations of every peptide (2.5 and 12.5 μM) and 4 NaCl concentrations (0, 50, 100, and 200 mM). Antibacterial activity of 3NI against H. pylori started at concentrations as low as 2.5 μM in the presence of at least 200 mM NaCl.

[2] = cited from earlier work; for antimicrobial activity at high NaCl concentrations: background statement of the introduction
Source text: Defensins exert their killing activity against bacteria, yeasts, fungi, and viruses. The activity of antimicrobial peptides involves the initial electrostatic binding to the cell membrane of microorganisms and subsequent incorporation into the membrane. This antimicrobial action induces damage or even destruction of the microbial cell membrane via pore formation. […] We previously reported the killing activity of β-defensin ...

| Substance | antimicrobial activity at high NaCl concentrations [2] | also measured |
| --- | --- | --- |
| KYYC^1RVRGGRC^2AVLSC^3PIFTKIQGTC^4STRGRKC^5C^6RRKK (bicyclic or more) [3NI] | – | antibacterial activity against H. pylori in contrast to wild-type peptides ([1]; 2.5 and 12.5 μM, 0, 50, 100 and 200 mM NaCl (Fig 4 title)): increased antibacterial activity; concentration at which antibacterial activity against H. pylori started ([1]; in the presence of at least 200 mM NaCl, CFU assay, peptides tested at 2.5 and 12.5 μM, triplicate): 2.5 µM; resistance of killing activity to high NaCl concentrations ([2]; earlier work of the authors): resistant to high NaCl concentrations |
| HBD1: human beta-defensin 1, constitutively synthesized; only mentioned in background, not tested here (DHYNCVSSGGQCLYSACPIFTKIQGTCYRGKAKCCK; not fully specified; ends and bridges not checked; UniProt P60022 33-68, looked up) | reduced by high NaCl concentrations | – |
| GIINTLQKYYC^1RVRGGRC^2AVLSC^3LPKEEQIGKC^4STRGRKC^5C^6RRKK (bicyclic or more) [HBD3, human beta-defensin 3, purchased from Peptides International] | still active up to 150 mM NaCl concentrations | – |
| QKYYC^1RVRGGRC^2AVLSC^3LPKEEQIGKC^4STRGRKC^5C^6RRKK (bicyclic or more) [3N] | – | antibacterial activity against H. pylori at 12.5 μM ([1]; 12.5 μM peptide, 0, 50, 100 and 200 mM NaCl, 3 independent experiments (Fig 4)): little antibacterial effect |
| ELDRIC^1GYGTARC^2RKK-C^3RSQEYRIGRC^4PNTYAC^5C^6LRK (bicyclic or more) [HBD4, human beta-defensin 4, purchased from Peptides International] | reduced by high NaCl concentrations | – |
| GIGDPVTC^1LKSGAIC^2HPVFC^3PRRYKQIGTC^4GLPGTKC^5C^6KKP (bicyclic or more) [HBD2, human beta-defensin 2, purchased from Peptides International] | reduced by high NaCl concentrations | – |
